The text below walks through data of US20230295200A1 (REGENTS OF THE UNIVERSITY OF MICHIGAN, priority 2022, published 2023).

The structures appear in SMILES notation.

The target in the first test is T1, STAT6 protein (Homo sapiens, UniProt P42226).
T1 sequence (P42226 1-847): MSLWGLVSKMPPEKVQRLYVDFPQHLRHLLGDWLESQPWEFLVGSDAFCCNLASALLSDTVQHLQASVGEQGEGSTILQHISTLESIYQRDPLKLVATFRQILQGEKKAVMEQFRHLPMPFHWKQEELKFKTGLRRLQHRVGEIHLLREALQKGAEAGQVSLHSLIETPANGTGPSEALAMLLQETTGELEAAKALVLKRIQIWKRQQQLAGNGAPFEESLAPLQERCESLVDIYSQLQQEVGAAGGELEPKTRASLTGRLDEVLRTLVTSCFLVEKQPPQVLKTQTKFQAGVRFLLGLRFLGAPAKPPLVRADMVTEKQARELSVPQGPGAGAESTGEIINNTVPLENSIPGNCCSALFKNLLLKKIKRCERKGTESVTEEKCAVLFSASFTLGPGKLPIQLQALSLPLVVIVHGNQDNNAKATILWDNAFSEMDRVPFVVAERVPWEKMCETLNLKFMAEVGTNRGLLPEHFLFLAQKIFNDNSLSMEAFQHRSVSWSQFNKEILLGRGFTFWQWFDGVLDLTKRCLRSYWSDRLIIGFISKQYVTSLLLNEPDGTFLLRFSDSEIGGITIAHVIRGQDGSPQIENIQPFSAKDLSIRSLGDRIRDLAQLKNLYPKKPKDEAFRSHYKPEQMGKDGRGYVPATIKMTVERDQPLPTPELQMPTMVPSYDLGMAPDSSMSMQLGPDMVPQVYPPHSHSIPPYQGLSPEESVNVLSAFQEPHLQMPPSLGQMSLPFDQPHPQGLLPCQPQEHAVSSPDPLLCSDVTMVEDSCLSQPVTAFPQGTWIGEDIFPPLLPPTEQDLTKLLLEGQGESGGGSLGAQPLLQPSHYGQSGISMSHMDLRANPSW
As to the kind of experiment: Fluorescence polarization (FP) binding assay, STAT6. The following applies: FP competition, 5 nM fluorescein-labeled tracer, 200 nM protein, PBS pH7.4; read-out: Binding STAT6. In outline:
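Fluorescence polarization is read after STAT5 or STAT6 protein (200 nM) and a fluorescein-labeled tracer (5 nM) equilibrate for 1 h at room temperature in DTT-containing PBS pH 7.4 with BGG and Tween-20. Inhibition constants are obtained by nonlinear curve fitting.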
With `CC(C)(C)[C@H](NC(=O)/C=C/c1ccc(C(F)(F)P(=O)(O)O)cc1)C(=O)N1CCC[C@H]1C(=O)N(c1ccccc1)c1ccc(I)cc1` [Compound 1, (difluoro(4-((E)-3-(((S)-1-((S)-2-((4-iodophenyl)(phenyl)carbamoyl)pyrrolidin-1-yl)-3,3-dimethyl-1-oxobutan-2-yl)amino)-3-oxoprop-1-en-1-yl)phenyl)methyl)phosphonic acid], the Ki lay within 100 to 1000 nM.
Consider `CC(C)(C)[C@H](NC(=O)c1cc2cc(C(F)(F)P(=O)(O)O)ccc2[nH]1)C(=O)N1CCC[C@H]1C(=O)N(c1ccccc1)c1ccc(I)cc1` [Compound 2, (difluoro(2-(((S)-1-((S)-2-((4-iodophenyl)(phenyl)carbamoyl)pyrrolidin-1-yl)-3,3-dimethyl-1-oxobutan-2-yl)carbamoyl)-1H-indol-5-yl)methyl)phosphonic acid], for which the Ki fell in the range of 100 to 1000 nM.

Another test has as its target T2, STAT5A (Homo sapiens, UniProt P42229).
T2 sequence (P42229 1-794): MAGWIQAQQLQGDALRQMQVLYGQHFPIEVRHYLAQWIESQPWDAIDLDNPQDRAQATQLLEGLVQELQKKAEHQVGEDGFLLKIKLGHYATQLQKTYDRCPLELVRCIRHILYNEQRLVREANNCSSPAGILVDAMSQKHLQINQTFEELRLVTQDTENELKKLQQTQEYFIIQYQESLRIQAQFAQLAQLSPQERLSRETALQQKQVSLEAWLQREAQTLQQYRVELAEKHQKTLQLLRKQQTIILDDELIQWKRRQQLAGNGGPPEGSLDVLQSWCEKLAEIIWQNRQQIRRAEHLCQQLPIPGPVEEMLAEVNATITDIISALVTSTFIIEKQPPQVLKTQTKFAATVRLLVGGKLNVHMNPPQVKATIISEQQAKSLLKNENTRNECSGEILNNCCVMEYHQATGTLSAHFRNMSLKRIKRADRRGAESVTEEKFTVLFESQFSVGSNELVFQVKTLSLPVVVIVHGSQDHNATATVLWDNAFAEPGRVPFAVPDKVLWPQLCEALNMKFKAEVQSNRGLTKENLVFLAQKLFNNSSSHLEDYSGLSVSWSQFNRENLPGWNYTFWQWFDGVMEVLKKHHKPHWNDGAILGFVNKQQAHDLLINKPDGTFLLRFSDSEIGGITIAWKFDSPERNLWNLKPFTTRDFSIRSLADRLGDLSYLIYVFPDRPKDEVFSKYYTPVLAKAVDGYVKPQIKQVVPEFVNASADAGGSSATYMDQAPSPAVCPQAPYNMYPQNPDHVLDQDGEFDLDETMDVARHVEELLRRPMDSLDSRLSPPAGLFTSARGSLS
As to the kind of experiment: Fluorescence polarization (FP) binding assay, STAT5A. The following applies: FP competition, 5 nM fluorescein-labeled tracer, 200 nM protein, PBS pH7.4. On the procedure:
Evaluation of the activity of the inhibitors may be accomplished by fluorescence polarization (FP) experiments. A representative general protocol is the following:
Fluorescence polarization (FP) experiments are performed in black round-bottom plates using the CLARIOstar microplate reader. To each well, fluorescein-labeled tracer and STAT5 or STAT6 protein are added in assay buffer. […] The inhibition constants are determined as the concentration of the STAT5 or STAT6 at which 50% of the ligand is bound.
Fluorescence polarization (FP) experiments were performed in 96-well, black round-bottom plates (Microfluor 2, Fisher Scientific) using the CLARIOstar microplate reader (BMG Labtech). To each well, 5 nM of fluoresceinlabeled tracer and 200 nM of STAT5 and/or STAT6 protein were added to a final volume of 100 μl in the assay buffer (PBS pH7.4+0.01% BGG+0.01% Tween-20, 2 mM DTT). The plate was mixed on a shaker for 15 m and incubated at room temperature for 1 h to reach equilibrium. […] All experimental data were analyzed using Prism 8.0 software (GraphPad Software), and the inhibition constants were determined by nonlinear curve fitting as the concentration of the STAT5 and/or STAT6 at which 50% of the ligand is bound.
(Polarisation of emitted light reports the rotation of a fluorescent probe.)
For the compound `CC(C)(C)[C@H](NC(=O)/C=C/c1ccc(C(F)(F)P(=O)(O)O)cc1)C(=O)N1CCC[C@H]1C(=O)N(c1ccccc1)c1ccc(I)cc1` [Compound 1, (difluoro(4-((E)-3-(((S)-1-((S)-2-((4-iodophenyl)(phenyl)carbamoyl)pyrrolidin-1-yl)-3,3-dimethyl-1-oxobutan-2-yl)amino)-3-oxoprop-1-en-1-yl)phenyl)methyl)phosphonic acid], the Ki was over 10000 nM.
`CC(C)(C)[C@H](NC(=O)c1cc2cc(C(F)(F)P(=O)(O)O)ccc2[nH]1)C(=O)N1CCC[C@H]1C(=O)N(c1ccccc1)c1ccc(I)cc1` [Compound 2, (difluoro(2-(((S)-1-((S)-2-((4-iodophenyl)(phenyl)carbamoyl)pyrrolidin-1-yl)-3,3-dimethyl-1-oxobutan-2-yl)carbamoyl)-1H-indol-5-yl)methyl)phosphonic acid] registered a Ki of 1000 to 10000 nM.
The same measure, in the same setting: as for `CCN(C(=O)[C@@H]1CCCCCN1C(=O)[C@@H](NC(=O)c1cc2cc(C(F)(F)P(=O)(O)O)ccc2s1)C(C)(C)C)c1ncc(-c2ccccc2)s1` [Compound 304, ((2-(((S)-1-((S)-2-(ethyl(5-phenylthiazol-2-yl)carbamoyl)azepan-1-yl)-3,3-dimethyl-1-oxobutan-2-yl)carbamoyl)benzo[b]thiophen-5-yl)difluoromethyl)phosphonic acid], the figure is 1000 to 10000 nM; as for `CN(C)C(=O)CCN(C(=O)[C@@H]1CCCN1C(=O)[C@@H](NC(=O)c1cc2cc(C(F)(F)P(=O)(O)O)ccc2s1)C1CC1)c1ccc(-c2nccs2)cc1` [Compound 321, ((2-(((S)-1-cyclopropyl-2-((S)-2-((3-(dimethylamino)-3-oxopropyl)(4-(thiazol-2-yl)phenyl)carbamoyl)pyrrolidin-1-yl)-2-oxoethyl)carbamoyl)benzo[b]thiophen-5-yl)difluoromethyl)phosphonic acid], 1000 to 10000 nM.
Still for that read-out and setting: as for `CCC(CC)[C@H](NC(=O)c1cc2cc(C(F)(F)P(=O)(O)O)ccc2s1)C(=O)N1CCC[C@H]1C(=O)N(CCC(=O)N(C)C)c1ccc(-c2nccs2)cc1` [Compound 322, ((2-(((S)-1-((S)-2-((3-(dimethylamino)-3-oxopropyl)(4-(thiazol-2-yl)phenyl)carbamoyl)pyrrolidin-1-yl)-3-ethyl-1-oxopentan-2-yl)carbamoyl)benzo[b]thiophen-5-yl)difluoromethyl)phosphonic acid], the figure is 100 to 1000 nM; as for `CN(C)C(=O)CCN(C(=O)[C@@H]1CCCN1C(=O)[C@@H](NC(=O)c1cc2cc(C(F)(F)P(=O)(O)O)ccc2s1)C1CCCCC1)c1ccc(-c2nccs2)cc1` [Compound 323, ((2-(((S)-1-cyclohexyl-2-((S)-2-((3-(dimethylamino)-3-oxopropyl)(4-(thiazol-2-yl)phenyl)carbamoyl)pyrrolidin-1-yl)-2-oxoethyl)carbamoyl)benzo[b]thiophen-5-yl)difluoromethyl)phosphonic acid], 1000 to 10000 nM.
The compound `CN(C)C(=O)CCN(C(=O)[C@@H]1CCCN1C(=O)[C@@H](NC(=O)c1cc2cc(C(F)(F)P(=O)(O)O)ccc2s1)c1ccccc1)c1ccc(-c2nccs2)cc1` [Compound 324, ((2-(((S)-2-((S)-2-((3-(dimethylamino)-3-oxopropyl)(4-(thiazol-2-yl)phenyl)carbamoyl)pyrrolidin-1-yl)-2-oxo-1-phenylethyl)carbamoyl)benzo[b]thiophen-5-yl)difluoromethyl)phosphonic acid] showed a Ki of 1000 to 10000 nM.
`CN(C)C(=O)CCN(C(=O)[C@@H]1CCCN1C(=O)[C@H](Cc1ccc(F)cc1)NC(=O)c1cc2cc(C(F)(F)P(=O)(O)O)ccc2s1)c1ccc(-c2nccs2)cc1` [Compound 325, ((2-(((S)-1-((S)-2-((3-(dimethylamino)-3-oxopropyl)(4-(thiazol-2-yl)phenyl)carbamoyl)pyrrolidin-1-yl)-3-(4-fluorophenyl)-1-oxopropan-2-yl)carbamoyl)benzo[b]thiophen-5-yl)difluoromethyl)phosphonic acid] yielded a Ki of 100 to 1000 nM.
On the same count and under the same terms, the value for `CN(C)C(=O)CCN(C(=O)[C@@H]1CCCN1C(=O)[C@H](Cc1ccc(Br)cc1)NC(=O)c1cc2cc(C(F)(F)P(=O)(O)O)ccc2s1)c1ccc(-c2nccs2)cc1` [Compound 326, ((2-(((S)-3-(4-bromophenyl)-1-((S)-2-((3-(dimethylamino)-3-oxopropyl)(4-(thiazol-2-yl)phenyl)carbamoyl)pyrrolidin-1-yl)-1-oxopropan-2-yl)carbamoyl)benzo[b]thiophen-5-yl)difluoromethyl)phosphonic acid] was 1000 to 10000 nM.
Still for that read-out and setting: as for `CN(C)C(=O)CCN(C(=O)[C@@H]1CCCN1C(=O)[C@H](Cc1ccc(C(F)(F)F)cc1)NC(=O)c1cc2cc(C(F)(F)P(=O)(O)O)ccc2s1)c1ccc(-c2nccs2)cc1` [Compound 327, ((2-(((S)-1-((S)-2-((3-(dimethylamino)-3-oxopropyl)(4-(thiazol-2-yl)phenyl)carbamoyl)pyrrolidin-1-yl)-1-oxo-3-(4-(trifluoromethyl)phenyl)propan-2-yl)carbamoyl)benzo[b]thiophen-5-yl)difluoromethyl)phosphonic acid], the figure is 1000 to 10000 nM; as for `CN(C)C(=O)CCN(C(=O)[C@@H]1CCCN1C(=O)[C@H](CCc1ccccc1)NC(=O)c1cc2cc(C(F)(F)P(=O)(O)O)ccc2s1)c1ccc(-c2nccs2)cc1` [Compound 328, ((2-(((S)-1-((S)-2-((3-(dimethylamino)-3-oxopropyl)(4-(thiazol-2-yl)phenyl)carbamoyl)pyrrolidin-1-yl)-1-oxo-4-phenylbutan-2-yl)carbamoyl)benzo[b]thiophen-5-yl)difluoromethyl)phosphonic acid], 100 to 1000 nM.
`CN(C)C(=O)CCN(C(=O)[C@@H]1CCCN1C(=O)[C@H](Cc1ccc2ccccc2c1)NC(=O)c1cc2cc(C(F)(F)P(=O)(O)O)ccc2s1)c1ccc(-c2nccs2)cc1` [Compound 329, ((2-(((S)-1-((S)-2-((3-(dimethylamino)-3-oxopropyl)(4-(thiazol-2-yl)phenyl)carbamoyl)pyrrolidin-1-yl)-3-(naphthalen-2-yl)-1-oxopropan-2-yl)carbamoyl)benzo[b]thiophen-5-yl)difluoromethyl)phosphonic acid]: the Ki was 1000 to 10000 nM.
